# Measurements reported in PubChem BioAssay (NCI).
#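 Interpolation was linear, between the two tested concentrations surrounding the appropriate level; five concentrations were tested over 48 hours in 96-well plates. GI50 marks 50% less growth. TGI marks complete inhibition of growth.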
# Key:
# Assay in all cases: growth of human tumour cells (NCI), 48 h
# KM12 colon = test system: KM12 colon
# SK-OV-3 ovarian = test system: SK-OV-3 ovarian
# SNB-75 CNS = test system: SNB-75 CNS
# RPMI-8226 leukemia = test system: RPMI-8226 leukemia
# TK-10 renal = test system: TK-10 renal
# MDA-MB-231 breast = test system: MDA-MB-231 breast
# CCRF-CEM leukemia = test system: CCRF-CEM leukemia
# LOX IMVI melanoma = test system: LOX IMVI melanoma
# SNB-19 CNS = test system: SNB-19 CNS
# NCI-H522 lung = test system: NCI-H522 lung
# MDA-MB-435 = test system: MDA-MB-435
# NCI-H460 lung = test system: NCI-H460 lung
# T-47D breast = test system: T-47D breast
# SF-295 CNS = test system: SF-295 CNS
# UACC-62 melanoma = test system: UACC-62 melanoma
# OVCAR-8 ovarian = test system: OVCAR-8 ovarian
# HCT-116 colon = test system: HCT-116 colon
# HS 578T breast = test system: HS 578T breast
# SK-MEL-2 melanoma = test system: SK-MEL-2 melanoma
# OVCAR-4 ovarian = test system: OVCAR-4 ovarian
# A549 NSCLC = test system: A549 NSCLC
# DU-145 prostate = test system: DU-145 prostate
# OVCAR-3 ovarian = test system: OVCAR-3 ovarian
# 786-0 renal = test system: 786-0 renal
# IGROV1 ovarian = test system: IGROV1 ovarian
# SR leukemia = test system: SR leukemia
# K-562 leukemia = test system: K-562 leukemia
# UACC-257 melanoma = test system: UACC-257 melanoma
# UO-31 renal = test system: UO-31 renal
# HOP-92 NSCLC = test system: HOP-92 NSCLC
# SK-MEL-28 melanoma = test system: SK-MEL-28 melanoma
# A498 renal = test system: A498 renal
# NCI-H23 lung = test system: NCI-H23 lung
# MCF7 breast = test system: MCF7 breast
# NCI-H226 lung = test system: NCI-H226 lung
# HOP-62 NSCLC = test system: HOP-62 NSCLC
# SN12C renal = test system: SN12C renal
# M14 melanoma = test system: M14 melanoma
# SF-539 CNS = test system: SF-539 CNS
# SK-MEL-5 melanoma = test system: SK-MEL-5 melanoma
# RXF 393 renal = test system: RXF 393 renal
# SW-620 colon = test system: SW-620 colon
# ACHN renal = test system: ACHN renal
# HCT-15 colon = test system: HCT-15 colon
# U251 CNS = test system: U251 CNS
# PC-3 prostate = test system: PC-3 prostate
# COLO 205 colon = test system: COLO 205 colon
# OVCAR-5 ovarian = test system: OVCAR-5 ovarian
# HCC-2998 colon = test system: HCC-2998 colon
# HL-60(TB) leukemia = test system: HL-60(TB) leukemia
# NCI/ADR-RES ovarian = test system: NCI/ADR-RES ovarian
# MOLT-4 leukemia = test system: MOLT-4 leukemia
# CAKI-1 renal = test system: CAKI-1 renal
# EKVX NSCLC = test system: EKVX NSCLC
# BT-549 breast = test system: BT-549 breast
# SF-268 CNS = test system: SF-268 CNS
# HT29 colon = test system: HT29 colon
# MALME-3M melanoma = test system: MALME-3M melanoma
structure (smiles),measurement,setting,value
CCCN(CCC)CCCNC(=O)c1cc2c(-c3ccc(OC)c(OC)c3)nn(C)c2s1,GI50,KM12 colon,26 µM
same,TGI,KM12 colon,> 100 µM
same,GI50,SK-OV-3 ovarian,44.3 µM
same,TGI,SK-OV-3 ovarian,> 100 µM
same,GI50,SNB-75 CNS,12.3 µM
same,TGI,SNB-75 CNS,40.5 µM
same,GI50,RPMI-8226 leukemia,14.6 µM
same,TGI,RPMI-8226 leukemia,42.2 µM
same,GI50,TK-10 renal,40.9 µM
same,TGI,TK-10 renal,> 100 µM
same,GI50,MDA-MB-231 breast,18.8 µM
same,TGI,MDA-MB-231 breast,41.3 µM
same,GI50,CCRF-CEM leukemia,20.3 µM
same,TGI,CCRF-CEM leukemia,65.6 µM
same,GI50,LOX IMVI melanoma,15.1 µM
same,TGI,LOX IMVI melanoma,31 µM
same,GI50,SNB-19 CNS,34.2 µM
same,TGI,SNB-19 CNS,> 100 µM
same,GI50,NCI-H522 lung,16.6 µM
same,TGI,NCI-H522 lung,41.3 µM
same,GI50,MDA-MB-435,14.1 µM
same,TGI,MDA-MB-435,31.8 µM
same,GI50,NCI-H460 lung,32.6 µM
same,TGI,NCI-H460 lung,> 100 µM
same,GI50,T-47D breast,27.5 µM
same,TGI,T-47D breast,98.7 µM
same,GI50,SF-295 CNS,21.6 µM
same,TGI,SF-295 CNS,49.4 µM
same,GI50,UACC-62 melanoma,16.9 µM
same,TGI,UACC-62 melanoma,33 µM
same,GI50,OVCAR-8 ovarian,36.9 µM
same,TGI,OVCAR-8 ovarian,> 100 µM
same,GI50,HCT-116 colon,17.7 µM
same,TGI,HCT-116 colon,55.3 µM
same,GI50,HS 578T breast,22.9 µM
same,TGI,HS 578T breast,> 100 µM
same,GI50,SK-MEL-2 melanoma,25.2 µM
same,TGI,SK-MEL-2 melanoma,72.9 µM
same,GI50,OVCAR-4 ovarian,23.5 µM
same,TGI,OVCAR-4 ovarian,> 100 µM
same,GI50,A549 NSCLC,36.5 µM
same,TGI,A549 NSCLC,> 100 µM
same,GI50,DU-145 prostate,39.1 µM
same,TGI,DU-145 prostate,> 100 µM
same,GI50,OVCAR-3 ovarian,21.5 µM
same,TGI,OVCAR-3 ovarian,> 100 µM
same,GI50,786-0 renal,17.9 µM
same,TGI,786-0 renal,91 µM
same,GI50,IGROV1 ovarian,43.3 µM
same,TGI,IGROV1 ovarian,> 100 µM
same,GI50,SR leukemia,11.9 µM
same,TGI,SR leukemia,58.9 µM
same,GI50,K-562 leukemia,21.5 µM
same,TGI,K-562 leukemia,66.2 µM
same,GI50,UACC-257 melanoma,17.3 µM
same,TGI,UACC-257 melanoma,34.4 µM
same,GI50,UO-31 renal,13.6 µM
same,TGI,UO-31 renal,47 µM
same,GI50,HOP-92 NSCLC,6.15 µM
same,TGI,HOP-92 NSCLC,46.9 µM
same,GI50,SK-MEL-28 melanoma,16.6 µM
same,TGI,SK-MEL-28 melanoma,32.1 µM
same,GI50,A498 renal,3.06 µM
same,TGI,A498 renal,> 100 µM
same,GI50,NCI-H23 lung,58 µM
same,TGI,NCI-H23 lung,> 100 µM
same,GI50,MCF7 breast,18.2 µM
same,TGI,MCF7 breast,42.1 µM
same,GI50,NCI-H226 lung,> 100 µM
same,TGI,NCI-H226 lung,> 100 µM
same,GI50,HOP-62 NSCLC,37.2 µM
same,TGI,HOP-62 NSCLC,> 100 µM
same,GI50,SN12C renal,54.9 µM
same,TGI,SN12C renal,> 100 µM
same,GI50,M14 melanoma,17.2 µM
same,TGI,M14 melanoma,35 µM
same,GI50,SF-539 CNS,16 µM
same,TGI,SF-539 CNS,31.1 µM
same,GI50,SK-MEL-5 melanoma,15.4 µM
same,TGI,SK-MEL-5 melanoma,29 µM
same,GI50,RXF 393 renal,10.7 µM
same,TGI,RXF 393 renal,31.1 µM
same,GI50,SW-620 colon,24.5 µM
same,TGI,SW-620 colon,82.6 µM
same,GI50,ACHN renal,17.2 µM
same,TGI,ACHN renal,39.5 µM
same,GI50,HCT-15 colon,25 µM
same,TGI,HCT-15 colon,> 100 µM
same,GI50,U251 CNS,25.3 µM
same,TGI,U251 CNS,> 100 µM
same,GI50,PC-3 prostate,33.8 µM
same,TGI,PC-3 prostate,> 100 µM
same,GI50,COLO 205 colon,13.6 µM
same,TGI,COLO 205 colon,30.3 µM
same,GI50,OVCAR-5 ovarian,50.4 µM
same,TGI,OVCAR-5 ovarian,> 100 µM
same,GI50,HCC-2998 colon,18.8 µM
same,TGI,HCC-2998 colon,37.7 µM
same,GI50,HL-60(TB) leukemia,20.7 µM
same,TGI,HL-60(TB) leukemia,46.2 µM
same,GI50,NCI/ADR-RES ovarian,33.4 µM
same,TGI,NCI/ADR-RES ovarian,> 100 µM
same,GI50,MOLT-4 leukemia,17.6 µM
same,TGI,MOLT-4 leukemia,59.5 µM
same,GI50,CAKI-1 renal,27.1 µM
same,TGI,CAKI-1 renal,> 100 µM
same,GI50,EKVX NSCLC,71.7 µM
same,TGI,EKVX NSCLC,> 100 µM
same,GI50,BT-549 breast,20.9 µM
same,TGI,BT-549 breast,87 µM
same,GI50,SF-268 CNS,31.1 µM
same,TGI,SF-268 CNS,> 100 µM
same,GI50,HT29 colon,14.5 µM
same,TGI,HT29 colon,45.3 µM
same,GI50,MALME-3M melanoma,18.4 µM
same,TGI,MALME-3M melanoma,35.8 µM
